Test results reported in US20080207705A1, “Heteroaryl-Imidazole Derivatives as Cannabinoid CB1 Receptor Antagonists” (Green Cross Corporation, priority 2007, published 2008).

Molecular target: T1, rat CB-1 receptor (Rattus norvegicus, UniProt P20272)
T1 construct: The tissue obtained from the brain of SD rats was homogenized; from tissue; host or cells: brain of SD rats (membrane pellet of homogenate)
Assay: rat CB-1 receptor binding protocol with [3H]CP-55940
Settings: not given

T1 sequence (P20272 whole entry): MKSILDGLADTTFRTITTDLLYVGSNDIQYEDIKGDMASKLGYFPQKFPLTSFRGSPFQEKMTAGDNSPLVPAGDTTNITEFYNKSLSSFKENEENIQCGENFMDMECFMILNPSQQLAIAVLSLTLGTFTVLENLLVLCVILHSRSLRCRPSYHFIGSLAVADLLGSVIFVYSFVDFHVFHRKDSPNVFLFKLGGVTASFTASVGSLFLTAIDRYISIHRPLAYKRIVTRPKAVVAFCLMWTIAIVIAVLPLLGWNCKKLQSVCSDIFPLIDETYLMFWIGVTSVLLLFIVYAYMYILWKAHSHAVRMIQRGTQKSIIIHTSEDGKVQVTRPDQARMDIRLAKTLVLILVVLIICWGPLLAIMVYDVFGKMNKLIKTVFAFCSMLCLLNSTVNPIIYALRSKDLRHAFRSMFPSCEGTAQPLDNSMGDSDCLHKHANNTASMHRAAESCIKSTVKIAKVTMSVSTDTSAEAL

Structure (SMILES)	IC50
CCc1c(-c2nnc(C3(C(F)(F)F)CCC3)s2)nc(-c2ccccc2Cl)n1-c1ccc(Br)cc1 [Example 147, 2-(1-(4-Bromophenyl)-2-(2-chlorophenyl)-5-ethyl-1H-imidazol-4-yl)-5-(1-(trifluoromethyl)cyclobutyl)-1,3,4-thiadiazole]	5.33 nM

Same assay, conditions: [3H]CP-55940, brain tissue of SD rats, 30 °C for 60 min; read-out: IC50

Structure (SMILES)	IC50
CC(C)c1c(-c2nnc(C(C)(C)C)s2)nc(-c2ccc(Cl)cc2Cl)n1-c1ccc(Br)cc1 [Example 114, 2-(1-(4-Bromophenyl)-2-(2,4-dichlorophenyl)-5-isopropyl-1H-imidazo-4-yl)-5-tert-butyl-1,3,4-thiadiazole]	6.49 nM
CC(C)c1c(-c2nnc(C3(c4ccccc4)CC3)s2)nc(-c2ccc(Cl)cc2Cl)n1-c1ccc(Br)cc1 [Example 116, 2-(1-(4-Bromophenyl)-2-(2,4-dichlorophenyl)-5-isopropyl-1H-imidazol-4-yl)-5-(1-phenylcyclopropyl)-1,3,4-thiadiazole]	5.66 nM
CCc1c(-c2nnc(C3(c4ccccc4)CC3)s2)nc(-c2ccc(Cl)cc2Cl)n1-c1ccc(Br)cc1 [Example 117, 2-(1-(4-Bromophenyl)-2-(2,4-dichlorophenyl)-5-ethyl-1H-imidazol-4-yl)-5-(1-phenylcyclopropyl)-1,3,4-thiadiazole]	8.29 nM
CC(C)c1c(-c2nnc(C3(c4ccccc4)CC3)s2)nc(-c2ccc(Cl)cc2Cl)n1-c1ccc(Cl)cc1 [Example 118, 2-(1-(4-Chlorophenyl)-2-(2,4-dichlorophenyl)-5-isopropyl-1H-imidazol-4-yl)-5-(1-phenylcyclopropyl)-1,3,4-thiadiazole]	7.54 nM
CCCc1c(-c2nnc(C(C)(C)C)s2)nc(-c2ccc(Cl)cc2Cl)n1-c1ccc(Br)cc1 [Example 119, 2-(1-(4-Bromophenyl)-2-(2,4-dichlorophenyl)-5-propyl-1H-imidazol-4-yl)-5-tert-butyl-1,3,4-thiadiazole]	13.5 nM
CCCc1c(-c2nnc(C3CCCCC3)s2)nc(-c2ccc(Cl)cc2Cl)n1-c1ccc(Br)cc1 [Example 120, 2-(1-(4-Bromophenyl)-2-(2,4-dichlorophenyl)-5-propyl-1H-imidazol-4-yl)-5-cyclohexyl-1,3,4-thiadiazole]	44.3 nM
CCCc1c(-c2nnc(C3(c4ccccc4)CC3)s2)nc(-c2ccc(Cl)cc2Cl)n1-c1ccc(Br)cc1 [Example 121, 2-(1-(4-Bromophenyl)-2-(2,4-dichlorophenyl)-5-propyl-1H-imidazol-4-yl)-5-(1-phenylcyclopropyl)-1,3,4-thiadiazole]	13.2 nM
CCCc1c(-c2nnc(C3CCC3)s2)nc(-c2ccc(Cl)cc2Cl)n1-c1ccc(Br)cc1 [Example 122, 2-(1-(4-Bromophenyl)-2-(2,4-dichlorophenyl)-5-propyl-1H-imidazol-4-yl)-5-cyclobutyl-1,3,4-thiadiazole]	37.4 nM
CCCc1c(-c2nnc(C3(c4ccc(Cl)cc4)CC3)s2)nc(-c2ccc(Cl)cc2Cl)n1-c1ccc(Br)cc1 [Example 123, 2-(1-(4-Bromophenyl)-2-(2,4-dichlorophenyl)-5-propyl-1H-imidazol-4-yl)-5-(1-(4-chlorophenyl)cyclopropyl)-1,3,4-thiadiazole]	4.48 nM
CCCc1c(-c2nnc(C3(c4ccc(Cl)cc4)CCC3)s2)nc(-c2ccc(Cl)cc2Cl)n1-c1ccc(Br)cc1 [Example 124, 2-(1-(4-Bromophenyl)-2-(2,4-dichlorophenyl)-5-propyl-1H-imidazol-4-yl)-5-(1-(4-chlorophenyl)cyclobutyl)-1,3,4-thiadiazole]	1.79 nM
CCCc1c(-c2nnc(C(C)(C)C)s2)nc(-c2ccc(Cl)cc2Cl)n1-c1ccc(Cl)cc1 [Example 125, 2-tert-Butyl-5-(1-(4-chlorophenyl)-2-(2,4-dichlorophenyl)-5-propyl-1H-imidazol-4-yl)-1,3,4-thiadiazole]	7.94 nM
CCCc1c(-c2nnc(C3CCC3)s2)nc(-c2ccc(Cl)cc2Cl)n1-c1ccc(Cl)cc1 [Example 126, 2-(1-(4-Chlorophenyl)-2-(2,4-dichlorophenyl)-5-propyl-1H-imidazol-4-yl)-5-cyclobutyl-1,3,4-thiadiazole]	13.5 nM
CCCc1c(-c2nnc(C3(c4ccc(Cl)cc4)CC3)s2)nc(-c2ccc(Cl)cc2Cl)n1-c1ccc(Cl)cc1 [Example 127, 2-(1-(4-Chlorophenyl)-2-(2,4-dichlorophenyl)-5-propyl-1H-imidazol-4-yl)-5-(1-(4-chlorophenyl)cyclopropyl)-1,3,4-thiadiazole]	3.43 nM
CCCc1c(-c2nnc(C3(c4ccc(Cl)cc4)CCC3)s2)nc(-c2ccc(Cl)cc2Cl)n1-c1ccc(Cl)cc1 [Example 128, 2-(1-(4-Chlorophenyl)-2-(2,4-dichlorophenyl)-5-propyl-1H-imidazol-4-yl)-5-(1-(4-chlorophenyl)cyclobutyl)-1,3,4-thiadiazole]	3.5 nM
CCCc1c(-c2nnc(C3CCCCC3)s2)nc(-c2ccc(Cl)cc2Cl)n1-c1ccc(Cl)cc1 [Example 129, 2-(1-(4-Chlorophenyl)-2-(2,4-dichlorophenyl)-5-propyl-1H-imidazol-4-yl)-5-cyclohexyl-1,3,4-thiadiazole]	51.5 nM
CCc1c(-c2nnc(C3(c4ccc(Cl)cc4)CC3)s2)nc(-c2ccc(Cl)cc2Cl)n1-c1ccc(Br)cc1 [Example 130, 2-(1-(4-Bromophenyl)-2-(2,4-dichlorophenyl)-5-ethyl-1H-imidazol-4-yl)-5-(1-(4-chlorophenyl)cyclopropyl)-1,3,4-thiadiazole]	4.53 nM
CCc1c(-c2nnc(C3(c4ccc(Cl)cc4)CCC3)s2)nc(-c2ccc(Cl)cc2Cl)n1-c1ccc(Br)cc1 [Example 131, 2-(1-(4-Bromophenyl)-2-(2,4-dichlorophenyl)-5-ethyl-1H-imidazol-4-yl)-5-(1-(4-chlorophenyl)cyclobutyl)-1,3,4-thiadiazole]	4.79 nM
CCc1c(-c2nnc(C3(c4ccc(OC)cc4)CC3)s2)nc(-c2ccc(Cl)cc2Cl)n1-c1ccc(Br)cc1 [Example 132, 2-(1-(4-Bromophenyl)-2-(2,4-dichlorophenyl)-5-ethyl-1H-imidazol-4-yl)-5-(1-(4-methoxyphenyl)cyclopropyl)-1,3,4-thiadiazole]	9.21 nM
CCc1c(-c2nnc(C3(c4ccc(C)cc4)CC3)s2)nc(-c2ccc(Cl)cc2Cl)n1-c1ccc(Br)cc1 [Example 133, 2-(1-(4-Bromophenyl)-2-(2,4-dichlorophenyl)-5-ethyl-1H-imidazol-4-yl)-5-(1-p-tolylcyclopropyl)-1,3,4-thiadiazole]	5.72 nM
CCc1c(-c2nnc(C3(c4ccc(Cl)cc4Cl)CC3)s2)nc(-c2ccc(Cl)cc2Cl)n1-c1ccc(Br)cc1 [Example 134, 2-(1-(4-Bromophenyl)-2-(2,4-dichlorophenyl)-5-ethyl-1H-imidazol-4-yl)-5-(1-(2,4-dichlorophenyl)cyclopropyl)-1,3,4-thiadiazole]	6.57 nM
CCc1c(-c2nnc(C3(c4ccc(Cl)cc4)CCCC3)s2)nc(-c2ccc(Cl)cc2Cl)n1-c1ccc(Br)cc1 [Example 135, 2-(1-(4-Bromophenyl)-2-(2,4-dichlorophenyl)-5-ethyl-1H-imidazol-4-yl)-5-(1-(4-chlorophenyl)cyclopentyl)-1,3,4-thiadiazole]	1.87 nM
Cc1c(-c2nnc(C3(C(F)(F)F)CC3)s2)nc(-c2ccc(Cl)cc2Cl)n1-c1ccc(Br)cc1 [Example 136, 2-(1-(4-Bromophenyl)-2-(2,4-dichlorophenyl)-5-methyl-1H-imidazol-4-yl)-5-(1-(trifluoromethyl)cyclopropyl)-1,3,4-thiadiazole]	47.1 nM
Cc1c(-c2nnc(C3(C(F)(F)F)CCC3)s2)nc(-c2ccc(Cl)cc2Cl)n1-c1ccc(Br)cc1 [Example 137, 2-(1-(4-Bromophenyl)-2-(2,4-dichlorophenyl)-5-methyl-1H-imidazol-4-yl)-5-(1-(trifluoromethyl)cyclobutyl)-1,3,4-thiadiazole]	8.52 nM
Cc1c(-c2nnc(C3(c4ccc(Cl)cc4)CC3)s2)nc(-c2ccc(Cl)cc2Cl)n1-c1ccc(Br)cc1 [Example 138, 2-(1-(4-Bromophenyl)-2-(2,4-dichlorophenyl)-5-methyl-1H-imidazol-4-yl)-5-(1-(4-chlorophenyl)cyclopropyl)-1,3,4-thiadiazole]	18.5 nM
CCc1c(-c2nnc(C3(C(F)(F)F)CC3)s2)nc(-c2ccc(Cl)cc2Cl)n1-c1ccc(Br)cc1 [Example 139, 2-(1-(4-Bromophenyl)-2-(2,4-dichlorophenyl)-5-ethyl-1H-imidazol-4-yl)-5-(1-(trifluoromethyl)cyclopropyl)-1,3,4-thiadiazole]	15.9 nM
CCc1c(-c2nnc(C3(C(F)(F)F)CCC3)s2)nc(-c2ccc(Cl)cc2Cl)n1-c1ccc(Br)cc1 [Example 140, 2-(1-(4-Bromophenyl)-2-(2,4-dichlorophenyl)-5-ethyl-1H-imidazol-4-yl)-5-(1-(trifluoromethyl)cyclobutyl)-1,3,4-thiadiazole]	6.74 nM
Cc1c(-c2nnc(C(C)(C)C)s2)nc(-c2ccccc2Cl)n1-c1ccc(Br)cc1 [Example 141, 2-(1-(4-Bromophenyl)-2-(2-chlorophenyl)-5-methyl-1H-imidazol-4-yl)-5-tert-butyl-1,3,4-thiadiazole]	10.7 nM
Cc1c(-c2nnc(C3(C(F)(F)F)CC3)s2)nc(-c2ccccc2Cl)n1-c1ccc(Br)cc1 [Example 142, 2-(1-(4-Bromophenyl)-2-(2-chlorophenyl)-5-methyl-1H-imidazol-4-yl)-5-(1-(trifluoromethyl)cyclopropyl)-1,3,4-thiadiazole]	12.3 nM
Cc1c(-c2nnc(C3(c4ccc(Cl)cc4)CC3)s2)nc(-c2ccccc2Cl)n1-c1ccc(Br)cc1 [Example 144, 2-(1-(4-Bromophenyl)-2-(2-chlorophenyl)-5-methyl-1H-imidazol-4-yl)-5-(1-(4-chlorophenyl)cyclopropyl)-1,3,4-thiadiazole]	2.18 nM
CCc1c(-c2nnc(C3(C(F)(F)F)CC3)s2)nc(-c2ccccc2Cl)n1-c1ccc(Br)cc1 [Example 146, 2-(1-(4-Bromophenyl)-2-(2-chlorophenyl)-5-ethyl-1H-imidazol-4-yl)-5-(1-(trifluoromethyl)cyclopropyl)-1,3,4-thiadiazole]	11.5 nM
